These results are taken from US6352993B1, “Pyrimidine derivatives and processes for the preparation thereof” (Yuhan Corporation, priority 1997, dated 2002).

In test [1] the target is proton pump (H+/K+-ATPase) (UniProt P19156). Kind of test: Inhibition of proton pump (H+/K+-ATPase activity). Type of test: biochemical. More on the design: other: K+-stimulated proton pump activity, pH 6.0, 37°. The note with it: K+-stimulated proton pump activity, pH 6.0, 37° C., 30 minutes preincubation; read-out: IC50 (concentration inhibiting 50% of the proton pump activity). As to the method: (§1) Test 1: Inhibition of proton pump (H^+/K^+-ATPase activity)
(§2) A proton pump enzyme was prepared by the same method as in the Experiment 1-1 of WO 94/14795. Further, the inhibitory effect of proton pump activity was measured by the same method as in Experiment 1-2 of WO 94/14795.
(§3) Namely, the proton pump activity stimulated by Mg^++ was used as a negative comparative group, and the activity stimulated by Mg^++ and K^+ was used as a positive comparative group. The comparative compound was omeprazole.
(§4) Test tubes were divided into 4 groups: Group 1 as negative comparative group(n=3), Group 2 as positive comparative group(n=3), Group 3(n=5×2) to be administered with the compound of the present invention and Group 4(n=5×2) to be administered with the comparative compound.
(§5) The inhibitory effects of Groups 3 and 4 on proton pump activity were measured by employing the compound prepared in Examples and omeprazole, respectively, each of which was dissolved in dimethylsulfoxide at 5 different concentrations.
(§6) To each of Groups 1, 2, 3 and 4 were added 100 μl of magnesium chloride(40 mM) dissolved in 40 mM Tris-HCI buffer(ph 6.0) and 100 μg of the enzyme source. The 50 μl of potassium chloride(50 mM) and 50 μl of ammonium chloride(6 mM) dissolved in 40 mM Tris-HCl buffer(pH 6.0) were added to all groups except for group 1.
(§7) 10 μl of dimethylsulfoxide was added to each of Groups 1 and 2; and to Group 3 was added 10 μl of dimethylsulfoxide solution prepared by dissolving compound of EXAMPLE at 5 different concentration(n=5×2). To Group 4, 10 μl of the solution prepared by dissolving omeprazole in dimethylsulfoxide at 5 different concentration(37.6, 21.4, 12.2, 7.0 and 4.0 μM) was added(n=5×2). 40 mM Tris-HCI buffer(pH=6.0) was added thereto so as to make the total volume 400 μl.
(§8) Thereafter, the test tube of each Group were placed at 37° C. for 30 minutes for the preincubation. 100 μl ATP solution (6.6 mM) was added until the reaction volume became 500 μl. After the reaction was carried out at 37° C. for 30 minutes, 25% cold trichloroacetic acid was added to terminate the enzyme reaction. The released inorganic phosphate was measured by an automatic analyzer(Express 550, coming).
(§9) The difference between Group 1 and Group 2 represents the proton pump activity activated by K^+ only. The IC50s of Group 3 and 4 were calculated from Litchfield-wilcoxon equation[see, e.g., J. Pharrnacol. Exp. Ther., 96, 99(1949)]. The concentrations of the test compounds inhibiting 50% of the proton pump activity are represented as IC50 in Table 1.

The subject of test [2] is gastric secretion in pylorus-ligated Sprague-Dawly rats. Kind of test: Inhibition of gastric secretion (pylorus-ligated rats, Shay method). The test is classed as in vivo. The note with it: 20 mg/kg intraduodenally, 5 hours; for Relative conc.: gastric juice acidity relative to omeprazole, equation (II); for Relative volume: gastric juice amount relative to omeprazole, equation (I); for Relative Acid Output: total acid output relative to omeprazole, equation (III). On the procedure:
Test 2: Inhibition of gastric secretion
In accordance with the method disclosed in Shay, H., et al., Gastroenterology 5 43-61(1945), Test 2 was carried out.
Sprague-Dawly rats having a body weight of 170±10 g were divided into 3 groups(n=5) and deprived of food for 24 hours before the experiment with free access to water. Under ether anesthesia, the abdomen was incised, and the pylorus was ligated. As a comparative group, Group 1 was administered intraduodenally in a volume of 0.5 ml/200 g of 30% aqueous polyethylene glycol 400 solution. Groups 2 and 3 were administered intraduodenally with the compound of Example and omeprazole, respectively, each of which was suspended in 30% aqueous polyethylene glycol 400 solution at a concentration of 20 mg/kg. After closing the abdominal cavity, the rats were placed for 5 hours and then killed by cervical dislocation. The stomach was extracted to obtain gastric juice.
Tne gastric juice was centrifuged at 1,000 g to remove precipitates. The amount and acidity of the gastric juice were measured. Relative volumes, relative acid concentrations and relative acid outputs of the test compounds were calculated from equations(I), (II) and (III) and the results are shown in Table 2.
Relative volume=(the average amount of gastric juice of Group 1—the average amount of gastric juice of Group 2)/(the average amount of gastric juice of Group 1−the average amount of gastric juice of Group 3)—(I)
Relative acid concerntration=(the average acidity of Group 1—the average acidity of Group 2)/(the average acidity of Group 1—the average acidity of Group 3)—(II)
Relative acid output (the total amount of acid output of Group 1—the total amount of acid output of Group 2)/(the total amount of acid output of Group 1—the total amount of acid output of Group 3)—(m)

Test [3] deals with proton pump (H+/K+-ATPase) (UniProt P19156). Description: Inhibition of proton pump (H+/K+-ATPase activity). Type of test: biochemical. Set-up: Effect ratio. The note with it: relative to omeprazole IC50. On the procedure:
as §1, §2, §3, §4, §5, §6, §7, §8, §9

Counter-ions that a name gives are not always drawn.

Consider `C=CCNc1nc(C)c(C)c(N2CCc3ccccc3C2)n1` [Example 2, 5,6-dimethyl-2-(3-allylamino)-4-(1,2,3,4-tetrahydroisoquinolin-2-yl)pyrimidine hydrochloride], for which, in test [1], the IC50 stood at 7.85 µM. In test [2], the Relative conc. amounted to 0.57, the Relative volume is on record as 0.69 and the “Relative Acid Output” value was determined as 0.70. For the same molecule, the Effect ratio in test [3] was found to be 1.4.
As to `COCCNc1nc(C)c(C)c(N2CCc3ccccc3C2)n1.Cl` [Example 5, 5,6-dimethyl-2-(2-methoxyethylamino)-4-(1,2,3,4-tetrahydroisoquinolin-2-yl)pyrimidine hydrochloride], in test [1], the IC50 was found to be 6.91 µM. Also, in test [2], the Relative conc. came out at 0.18, the Relative volume is 0.45 and the “Relative Acid Output” value stood at 0.43. For the same molecule, in test [3], the Effect ratio was determined as 1.6.
Turning to `Cc1nc(NCC(C)C)nc(N2CCc3ccccc3C2C)c1C` (stereo not drawn) [Example 14, 5,6-dimethyl-2-isobutylamino-4-(1-methyl-1,2,3,4-tetrahydroisoquinolin-2-yl)pyrimidine], in test [1], the IC50 came to 2.15 µM. In test [2], the Relative conc. is reported as 0.41, the Relative volume came out at 0.93 and the “Relative Acid Output” value is on record as 0.79. In test [3], the Effect ratio was determined as 5.2.
Regarding `Cc1nc(Nc2ccc(F)cc2)nc(N2CCc3c(O)ccc(O)c3C2C)c1C.Cl` (stereo not drawn) [Example 43, 5,6-dimethyl-2-(4-fluorophenylamino)-4-(5,8-dihydroxy-1-methyl-1,2,3,4-tetrahydroisoquinolin-2-yl)pyrimidine hydrochloride], the IC50 in test [1] worked out at 0.18 µM. The Effect ratio in test [3] is listed as 61.7.
Take `CC(=O)OCc1nc(Nc2ccc(F)cc2)nc(N2CCc3ccccc3C2C)c1C` (stereo not drawn) [Example 50, 5-methyl-6-acetoxymethyl-2-(4-fluorophenylamino)-4-(1-methyl-1,2,3,4-tetrahydroisoquinolin-2-yl)pyrimidine]: in test [2], the Relative conc. is 0.77, the Relative volume is 1.01 and the “Relative Acid Output” value amounted to 0.98.
`CCC(=O)OCc1nc(Nc2ccc(F)cc2)nc(N2CCc3ccccc3C2C)c1C` (stereo not drawn) [Example 51, 5-methyl-6-ethylcarbonyloxymethyl-2-(4-fluorophenylamino)-4-(1-methyl-1,2,3,4-tetrahydroisoquinolin-2-yl)pyrimidine]: in test [2], the Relative conc. worked out at 1.02, the Relative volume came to 1.09 and the “Relative Acid Output” value came out at 1.06.
The matching figures for `Cc1c(COC(=O)C(C)C)nc(Nc2ccc(F)cc2)nc1N1CCc2ccccc2C1C` (stereo not drawn) [Example 52, 5-methyl-6-isopropylcarbonyloxymethyl-2-(4-fluorophenylamino)-4-(1-methyl-1,2,3,4-tetrahydroisoquinolin-2-yl)pyrimidine]: 0.88, 0.86 and 0.96.
As to `Cc1c(COC(=O)C2CC2)nc(Nc2ccc(F)cc2)nc1N1CCc2ccccc2C1C` (stereo not drawn) [Example 54, 5-methyl-6-cyclopropylcarbonyloxymethyl-2-(4-fluorophenylamino)-4-(1-methyl-1,2,3,4-tetrahydroisoquinolin-2-yl)pyrimidine], in test [2], the Relative conc. is given as 0.79, the Relative volume came to 0.79 and the “Relative Acid Output” value amounted to 0.95.
Consider `Cc1nc(Nc2ccc(F)cc2)nc(N2CCc3cc(OC(=O)c4ccc([N+](=O)[O-])cc4)ccc3C2C)c1C` (stereo not drawn) [Example 107, 5,6-diinethyl-2-(4-fluorophenylamino)-4-{1-methyl-6-(4-nitrobenzoyloxy)-1,2,3,4-tetrahydroisoquinolin-2-yl}pyrimidine], for which, in test [2], the Relative conc. came to 0.56, the Relative volume is 0.62 and the “Relative Acid Output” value came out at 0.73.
In the case of `Cc1c(COC(=O)CNC(=O)OC(C)(C)C)nc(Nc2ccc(F)cc2)nc1N1CCc2ccccc2C1C` (stereo not drawn) [Example 139, 5-methyl-6-(N-t-butoxycarbonyl-glycyloxymetyl)-2-(4-fluorophenylamino)-4-(1-methyl-1,2,3,4-tetrahydroisoquinolin-2-yl)pyrimidine], in test [2], the Relative conc. stood at 0.75, the Relative volume is 1.01 and the “Relative Acid Output” value worked out at 1.01.
With `Cc1c(COC(=O)C(Cc2cn(Cc3ccccc3)cn2)NC(=O)OC(C)(C)C)nc(Nc2ccc(F)cc2)nc1N1CCc2ccccc2C1C` (stereo not drawn) [Example 144, 5-methyl-6-(N-t-butoxycarbonyl-Im-benzyl-histidyloxymethyl)-2-(4-fluorophenylamino)-4-(1-methyl-1,2,3,4-tetrahydroisoquinolin-2-yl)pyrimidine], in test [2], the Relative conc. is recorded as 0.80, the Relative volume is 0.90 and the “Relative Acid Output” value was determined as 0.94.
Consider `Cc1c(COC(=O)[C@@H](N)C(C)C)nc(Nc2ccc(F)cc2)nc1N1CCc2ccccc2C1C.Cl.Cl` (stereo partly drawn) [Example 171, 5-methyl-6-valyloxymethyl-2-(4-fluorophenylamino)-4-(1-methyl-1,2,3,4-tetrahydroisoquinolin-2-yl)pyrimidine dibydrochloride], for which, in test [2], the Relative conc. is 1.42, the Relative volume was 1.46 and the “Relative Acid Output” value was found to be 1.33.
On to `Cc1c(COC(=O)[C@@H](N)Cc2ccccc2)nc(Nc2ccc(F)cc2)nc1N1CCc2ccccc2C1C.Cl.Cl` (stereo partly drawn) [Example 172, 5-methyl-6-(phenylalanyloxymethyl)-2-(4-fluorophenylamino)-4-(1-methyl-1,2,3,4-tetrahydroisoquinolin-2-yl)pyrimidine dihydrochloride], for which, in test [2], the Relative conc. is 1.33, the Relative volume is listed as 1.48 and the “Relative Acid Output” value stood at 1.34.
On to `Cc1c(COC(=O)CN2CCOCC2)nc(Nc2ccc(F)cc2)nc1N1CCc2ccccc2C1C.Cl.Cl` (stereo not drawn) [Example 175, 5-methyl-6-(4-morpholineacetoxymethyl)-2-(4-fluorophenylamino)-4-(t1-methyl-1,2,3,4tetrahydroisoquinolin-2-yl)pyrimidine dihydrochloride], for which, in test [2], the Relative conc. was determined as 0.30, the Relative volume was determined as 0.87 and the “Relative Acid Output” value worked out at 0.79.
As to `Cc1c(COC(=O)CN2CCCCC2)nc(Nc2ccc(F)cc2)nc1N1CCc2ccccc2C1C.Cl.Cl` (stereo not drawn) [Example 181, 5-rethyl-6-(1-piperidineacetoxymethyl)-2-(4-fluorophenylamino)-4-(1-methyl-1,2,3,4-tetrahydroisoquinolin-2-yl)pyrimidine dihydrochloride], in test [2], the Relative conc. is 0.16, the Relative volume is 0.99 and the “Relative Acid Output” value was determined as 0.80.
As for `COc1ccc2[nH]c([S+]([O-])Cc3ncc(C)c(OC)c3C)nc2c1` (stereo not drawn) [Omeprazole, omeprazole, reference compound], the IC50 in test [1] was 11.1 µM.
